{"source": "patent US10849959B2", "about": "“Formulation, dosage form and method of reducing knee pain” (ORTHOTROPHIX, INC., priority 2017, dated 2020)", "key": {"[1]": {"test_system": "subjects with bilateral patello-femoral knee osteoarthritis", "assay": "Randomized double-blind placebo-controlled clinical study of TPX-100, efficacy by KOOS/WOMAC patient reported outcomes", "type": "in vivo, human", "conditions": "for Severity of pain going up or down stairs, treated vs placebo-treated knee (in words): p=0.004; for Pain alleviation in other activities or statuses of KOOS pain: activities other than going up or down stairs (and bending knee fully), any time point; for Knee functions, KOOS ADL (Function of Daily Living) and WOMAC function, treated vs placebo-treated knees: both 6 and 12 months after treatment, FIG. 12", "description": "For this activity, the peptide of SEQ ID No. 1 was tested for its clinical safety and efficacy on a condition involving cartilage damage in a Phase 2 randomized double-blind controlled clinical trial with mild to severe knee osteoarthritis (OA) patients. See EXAMPLES.\nThe KOOS ADL (Function of Daily Living) consists of 17 questions asking degree of difficulty in functioning each knee during 17 different activities in daily living. Those 17 activities are broadly ranged from light to heavy duties. With regard to each activity, difficulty of each knee function is scored in 0-4 range where 0 as no difficulty and 4 as the most difficulty. The sum of the scores range from 0 to 68 (4×17), which is then converted to a 0-100 scale is KOOS ADL score. WOMAC function consists of the same questions with same scoring, except the total score range is not converted to 0-100 but remains 0-68.\nThe KOOS pain domain consists of 9 questions and each question is scored in 0-4 range. The sum of the scores, 0-36 (4×9), which is converted to a 0-100 scale to generate a KOOS pain score. While the first of the 9 questions asks for the frequency of knee pain, the other 8 questions ask for severity of knee pain during different activities or positions, where 0 is “never” experiencing pain and 4 is “always” experiencing pain. These 8 activities range from positions with little to no motion such as “at night while in bed” to those with high joint loading such as “going up or down stairs” (See FIG. 2). WOMAC pain consists of the same questions with the same scoring, except that the total score is not converted to a 100-point scale but remains in the range 0-36.\nMRIs of both knees were evaluated by a central reader to determine the ICRS grade (gICRS) of each knee. If the cartilage of patello-femoral compartment in both knees fell within ICRS grades 1-3, or 4 with only focal defects, no defects greater than 1 cm, and all other inclusion criteria were met, with none of the exclusion criteria, the subject was registered. The randomization center randomized each subject to either Right knee active or Left knee active, with the active knee to receive TPX-100 and the contralateral knee to receive identical placebo.\nFor enrolled subjects, there was within-subject randomization, such that one knee received active drug injections, and the contralateral knee received identical placebo injections. Using subjects as their own control permits reduction of confounders such as weight, activity level, pain threshold, and uncharacterized genetic susceptibilities to OA progression. As two knees within a person form a matched set, the effects of individual-level confounders that are difficult to quantify (e.g. level of activity, genetic and epigenetic factors, pain threshold) are eliminated, increasing the power of the study to detect a treatment effect if one is present.\nAll KOOS subscale scores were analyzed. The primary analysis was carried out using a two-sided paired t-test at the 5% level of significance. The outcome variable was the difference between the change of the score of each subscale of KOOS from baseline in the treated knee (“Index Knee”) and the change from baseline in the placebo-treated knee (“Control Knee”).\nNinety-three (93) subjects who received 200 mg per dose of TPX-100 in one knee and placebo in contralateral knee were analyzed for efficacy."}, "[2]": {"test_system": "subjects with bilateral patello-femoral knee osteoarthritis", "experimental": "Eighteen (18) orthopedic, rheumatologic and family practice centers in the U.S. participated in the study.\nA Safety Review Committee (SRC) evaluated safety in each dosing cohort. The SRC assessed safety and dose-limiting toxicities, if evident, and determined whether the next higher dosing regimen might be enrolled. Part A were completed and analyzed with regard to safety prior to dose selection and initiation of Part B.\nSix (6) subjects were enrolled in 20, 50, and 100 mg cohorts, respectively, and nine (9) subjects were enrolled in 200 mg cohort. Each dosing cohort was reviewed based on safety analysis of dose groups in Part A.\nNo other doses of drug or placebo were administered. All subjects visited their respective clinical sites at 3, 6, and 12 months after the first dosing for their safety and efficacy assessments.\nOn the first dosing day, the randomized subjects were assessed for their general health conditions by physical examinations and vital signs. Further, they completed self-reported assessments of the conditions of each of their knees as well as systemic health by the questionnaires of KOOS (Knee injury and Osteoarthritis Outcome Score), which includes subscales of WOMAC (Western Ontario and McMaster Universities Osteoarthritis Index). KOOS is a questionnaire that assesses knee-specific activities of daily living, sports and recreation function, knee-related quality of life, symptom, and knee pain. […] After these assessments, subjects received one intra-articular injection in each knee, with each injection prepared from the vial(s) marked for that knee. One knee received TPX-100, and the contralateral knee received placebo, in a triple-blind fashion (subject, site, and sponsor all blinded to treatment assignment). Subjects were monitored for adverse events during the injections and for a few hours after the injections. Vital signs were also monitored after the injections.\nOn the 7th, 14th, and 21st days after the first dosing, subjects received the second, third, and fourth (last) dosing of the same study materials, respectively, as well as safety and adverse event assessments in the same way as the first dosing day.\nSubjects returned to their respective study sites at 3, 6 and 12 months after the first dosing day for follow-up evaluations. In addition, the study sites monitored the subject's condition through telephone contact 9 months after the first dosing day. During the 3, 6, and 12 months post-treatment follow-up on-site visits, subjects were evaluated by physical examination, vital signs, serum chemistry, as well as KOOS. Adverse events and concomitant medications were also recorded."}, "[3]": {"test_system": "standardized large cartilage defects", "conditions": "four weekly intra-articular injections, cited from earlier work"}, "[4]": {"conditions": "stated as known, no test described, cited from earlier work"}, "[5]": {"conditions": "12 months, 200 mg, listed as peptide of SEQ ID No. 1"}, "[6]": {"conditions": "200 mg, listed as peptide of SEQ ID No. 1"}}, "note": "Read-outs that look alike come from different tables or passages of the source."}
{"sequence": "TDLQERGDNDISPFSGDGQPFKD [TPX-100]", "values": [{"measurement": "Function improvement across the 17 activities of KOOS ADL, treated vs placebo-treated knee", "setting": "[1]; 200 mg", "value": "observed in most of the 17 light to heavy activities"}, {"measurement": "Frequency of overall knee pain, Index vs Control knees (in words)", "setting": "[1]; 12 months, 200 mg", "value": "significantly improved (p=0.04)"}, {"measurement": "Severity of pain bending knee fully, treated vs placebo-treated knee (in words)", "setting": "[1]; 12 months, 200 mg", "value": "trend (p<0.09) of improvement"}, {"measurement": "Frequency of overall knee pain, Index vs Control knees (in words)", "setting": "[1]; [5]", "value": "significantly reduced"}, {"measurement": "Severity of pain bending knee fully, treated vs placebo-treated knee (in words)", "setting": "[1]; [5]", "value": "near statistically significant pain alleviation"}, {"measurement": "Severity of pain going up or down stairs, treated vs placebo-treated knee (in words)", "setting": "[1]; 12 months, 200 mg", "value": "highly significant"}, {"measurement": "Severity of pain going up or down stairs, treated vs placebo-treated knee (in words)", "setting": "[1]; [5]", "value": "statistically significant improvement"}, {"measurement": "Score Change from Baseline to 12 Months, Index: How often do you experience RIGHT/LEFT knee pain?", "setting": "[1]; KOOS Pain Question 1 (frequency, score 0-4), TPX-100 treated knees, 200 mg intra-articular, 4 weekly doses, 12 months", "value": "−0.62"}, {"measurement": "Difference = [Index score change] − [Control score change]: How often do you experience RIGHT/LEFT knee pain?", "setting": "[1]; KOOS Pain Question 1, TPX-100 vs placebo treated knees, baseline to 12 months, 200 mg", "value": "−0.26"}, {"measurement": "Score Change from Baseline to 12 Months, Index: Twisting/pivoting on your knee", "setting": "[1]; KOOS Pain Question 2 (severity, score 0-4), TPX-100 treated knees, 200 mg intra-articular, 4 weekly doses, 12 months", "value": "−0.19"}, {"measurement": "Difference = [Index score change] − [Control score change]: Twisting/pivoting on your knee", "setting": "[1]; KOOS Pain Question 2, TPX-100 vs placebo treated knees, baseline to 12 months, 200 mg", "value": "−0.09"}, {"measurement": "Score Change from Baseline to 12 Months, Index: Straightening knee fully moving", "setting": "[1]; KOOS Pain Question 3 (severity, score 0-4), TPX-100 treated knees, 200 mg intra-articular, 4 weekly doses, 12 months", "value": "−0.30"}, {"measurement": "Difference = [Index score change] − [Control score change]: Straightening knee fully moving", "setting": "[1]; KOOS Pain Question 3, TPX-100 vs placebo treated knees, baseline to 12 months, 200 mg", "value": "−0.12"}, {"measurement": "Score Change from Baseline to 12 Months, Index: Bending knee fully", "setting": "[1]; KOOS Pain Question 4 (severity, score 0-4), TPX-100 treated knees, 200 mg intra-articular, 4 weekly doses, 12 months", "value": "−0.45"}, {"measurement": "Difference = [Index score change] − [Control score change]: Bending knee fully", "setting": "[1]; KOOS Pain Question 4, TPX-100 vs placebo treated knees, baseline to 12 months, 200 mg", "value": "−0.24"}, {"measurement": "Score Change from Baseline to 12 Months, Index: Walking on flat surface", "setting": "[1]; KOOS Pain Question 5 (severity, score 0-4), TPX-100 treated knees, 200 mg intra-articular, 4 weekly doses, 12 months", "value": "−0.25"}, {"measurement": "Difference = [Index score change] − [Control score change]: Walking on flat surface", "setting": "[1]; KOOS Pain Question 5, TPX-100 vs placebo treated knees, baseline to 12 months, 200 mg", "value": "−0.12"}, {"measurement": "Score Change from Baseline to 12 Months, Index: Going up or down stairs", "setting": "[1]; KOOS Pain Question 6 (severity, score 0-4), TPX-100 treated knees, 200 mg intra-articular, 4 weekly doses, 12 months", "value": "−0.51"}, {"measurement": "Difference = [Index score change] − [Control score change]: Going up or down stairs", "setting": "[1]; KOOS Pain Question 6, TPX-100 vs placebo treated knees, baseline to 12 months, 200 mg", "value": "−0.33"}, {"measurement": "Score Change from Baseline to 12 Months, Index: At night while in bed", "setting": "[1]; KOOS Pain Question 7 (severity, score 0-4), TPX-100 treated knees, 200 mg intra-articular, 4 weekly doses, 12 months", "value": "−0.19"}, {"measurement": "Difference = [Index score change] − [Control score change]: At night while in bed", "setting": "[1]; KOOS Pain Question 7, TPX-100 vs placebo treated knees, baseline to 12 months, 200 mg", "value": 0.00}, {"measurement": "Difference = [Index score change] − [Control score change]: Sitting or lying", "setting": "[1]; KOOS Pain Question 8, TPX-100 vs placebo treated knees, baseline to 12 months, 200 mg", "value": "−0.02"}, {"measurement": "Score Change from Baseline to 12 Months, Index: Standing upright", "setting": "[1]; KOOS Pain Question 9 (severity, score 0-4), TPX-100 treated knees, 200 mg intra-articular, 4 weekly doses, 12 months", "value": "−0.34"}, {"measurement": "Difference = [Index score change] − [Control score change]: Standing upright", "setting": "[1]; KOOS Pain Question 9, TPX-100 vs placebo treated knees, baseline to 12 months, 200 mg", "value": "−0.16"}, {"measurement": "Pain alleviation in other activities or statuses of KOOS pain", "setting": "[1]; 200 mg", "value": "did not show statistically significant improvements"}, {"measurement": "Pain alleviation in other activities or statuses of KOOS pain", "setting": "[1]; [6]", "value": "did not show pain alleviation with statistical significance or trend"}, {"measurement": "KOOS Sports and Recreation subscale, Index vs Control knees", "setting": "[1]; at 6 months, 200 mg", "value": "clinically meaningful and statistically significant improvement"}, {"measurement": "KOOS knee related quality of life (QOL) subscale, Index vs Control knees", "setting": "[1]; at 12 months, 200 mg", "value": "clinically meaningful and statistically significant improvement"}, {"measurement": "Total KOOS pain subscale, Index vs Control knees", "setting": "[1]; at 12 months, 200 mg", "value": "clinically meaningful and statistical trend (p<0.09) of improvement"}, {"measurement": "Total KOOS pain subscale, Index vs Control knees", "setting": "[1]; at 12 months, 200 mg, listed as peptide of SEQ ID No. 1", "value": "clinically meaningful improvement"}, {"measurement": "Knee functions, KOOS ADL (Function of Daily Living) and WOMAC function, treated vs placebo-treated knees", "setting": "[1]; 200 mg", "value": "clinically meaningful and statistically significant (p<0.05) improvement"}, {"measurement": "Knee functions, KOOS ADL (Function of Daily Living) and WOMAC function, treated vs placebo-treated knees", "setting": "[1]; [6]", "value": "clinically meaningful and highly statistically significant (p=0.008) improvement"}, {"measurement": "Total KOOS pain score, treated vs placebo treated knees", "setting": "[1]; until 6 months after the treatment, 200 mg", "value": "very similar"}, {"measurement": "Dose-limiting toxicities", "setting": "[2]; Part A, 20, 50, 100 and 200 mg per intra-articular injection, four weekly", "value": "no dose-limiting toxicities"}, {"measurement": "Safety and tolerability of treatments", "setting": "[2]; throughout the study period", "value": "safe and well tolerated"}, {"measurement": "Severe adverse events related to drug treatment", "setting": "[2]; throughout the study period", "value": "no severe adverse events likely or possibly related to the drug treatment"}, {"measurement": "Severity of treatment-related adverse events", "setting": "[2]; throughout the study period", "value": "mild or moderate, transient"}, {"measurement": "Articular cartilage regeneration compared to vehicle control group", "setting": "[3]; 125 mg and 250 mg, 6 months post-surgery", "value": "histologically-confirmed and statistically significant articular cartilage regeneration"}, {"measurement": "Safety and tolerability in goats", "setting": "[3]; freely ambulatory animals", "value": "safe and well-tolerated"}, {"measurement": "Analgesic or anti-inflammatory activities", "setting": "[4]", "value": "does not have any analgesic or anti-inflammatory activities"}, {"measurement": "Analgesic or anti-inflammatory activities", "setting": "[4]; listed as peptide of SEQ ID No. 1", "value": "does not have any anti-inflammatory or analgesic activities"}]}
